Assay results: ChEMBL document CHEMBL6115000, “Discovery of a first-in-class PROTAC degrader of histone lysine demethylase KDM4” (Eur J Med Chem, 2025)
Active and inactive are the calls of the source. No cut-off for these calls is given here.

Experiments:
[1] = target: T1, von Hippel-Lindau disease tumor suppressor/Lysine-specific demethylase 4A (Homo sapiens, UniProt O75164+P40337); test: PROTAC activity at VHL/KDM4A in human KYSE-150 cells assessed as induction of KDM4A degradation at 1 uM incubated for 12 hrs by Western blot analysis relative to control; type: cell-based; settings: KYSE-150 cell line
[2] = Induction of apoptosis in human KYSE-150 cells assessed as early apoptotic cells at 37 nM incubated for 72 hrs by Annexin V-PE/7-AAD staining based flow cytometry (reference value: 5.27 %); type: functional
[3] = Induction of apoptosis in human KYSE-150 cells assessed as early apoptotic cells at 12.3 nM incubated for 72 hrs by Annexin V-PE/7-AAD staining based flow cytometry (reference value: 5.27 %); type: functional
[4] = Induction of cell cycle arrest in human KYSE-150 cells assessed as accumulation of cells at S pahse at 333.3 nM incubated for 24 hrs by flow cytometry (reference value: 13.15 %); type: functional
[5] = Induction of apoptosis in human KYSE-150 cells assessed as viable cells at 37 nM incubated for 72 hrs by Annexin V-PE/7-AAD staining based flow cytometry (reference value: 84.47 %); type: functional; settings: read-out: Activity
[6] = target: T2, von Hippel-Lindau disease tumor suppressor/Lysine-specific demethylase 4B (Homo sapiens, UniProt P40337+O94953); test: PROTAC activity at VHL/KDM4B in human KYSE-150 cells assessed as induction of KDM4B degradation upto 1000 nM measured after 24 hrs by Western blot analysis relative to control; type: cell-based; settings: KYSE-150 cell line
Target sequence in this assay (O94953 whole entry, looked up): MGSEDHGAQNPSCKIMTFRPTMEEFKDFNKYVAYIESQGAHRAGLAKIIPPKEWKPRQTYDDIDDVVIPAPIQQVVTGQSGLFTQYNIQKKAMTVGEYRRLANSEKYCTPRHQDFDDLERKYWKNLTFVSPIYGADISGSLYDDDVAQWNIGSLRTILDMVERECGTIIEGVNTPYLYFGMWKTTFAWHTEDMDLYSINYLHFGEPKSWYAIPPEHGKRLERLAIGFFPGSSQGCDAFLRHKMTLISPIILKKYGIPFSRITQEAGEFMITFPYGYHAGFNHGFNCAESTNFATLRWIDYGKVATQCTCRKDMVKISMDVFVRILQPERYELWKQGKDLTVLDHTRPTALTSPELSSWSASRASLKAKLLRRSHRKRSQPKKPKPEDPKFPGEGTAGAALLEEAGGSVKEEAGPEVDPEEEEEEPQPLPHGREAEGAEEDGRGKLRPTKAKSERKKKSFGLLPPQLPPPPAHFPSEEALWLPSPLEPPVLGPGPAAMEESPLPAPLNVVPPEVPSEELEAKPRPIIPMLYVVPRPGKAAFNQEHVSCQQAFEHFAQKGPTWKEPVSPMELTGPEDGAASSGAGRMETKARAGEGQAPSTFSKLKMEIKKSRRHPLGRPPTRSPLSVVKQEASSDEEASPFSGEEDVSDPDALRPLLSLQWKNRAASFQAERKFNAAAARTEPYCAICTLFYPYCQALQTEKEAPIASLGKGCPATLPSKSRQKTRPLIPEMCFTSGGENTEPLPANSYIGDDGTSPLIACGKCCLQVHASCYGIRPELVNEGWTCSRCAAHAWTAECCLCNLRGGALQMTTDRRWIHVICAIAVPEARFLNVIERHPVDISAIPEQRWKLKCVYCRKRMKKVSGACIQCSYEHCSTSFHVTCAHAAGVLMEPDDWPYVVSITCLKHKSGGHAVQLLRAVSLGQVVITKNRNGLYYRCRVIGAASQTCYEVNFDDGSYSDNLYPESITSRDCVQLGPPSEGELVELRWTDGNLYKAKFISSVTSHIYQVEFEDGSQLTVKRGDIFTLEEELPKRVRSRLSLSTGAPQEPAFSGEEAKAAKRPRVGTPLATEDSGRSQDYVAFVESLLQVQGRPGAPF
Target sequence in this assay (P40337 whole entry, looked up): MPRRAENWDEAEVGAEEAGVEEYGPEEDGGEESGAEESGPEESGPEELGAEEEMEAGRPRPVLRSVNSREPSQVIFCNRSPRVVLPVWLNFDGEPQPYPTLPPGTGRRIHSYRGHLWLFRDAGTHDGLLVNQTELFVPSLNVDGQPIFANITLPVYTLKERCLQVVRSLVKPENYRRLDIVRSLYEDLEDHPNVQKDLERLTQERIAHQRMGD

[7] = Induction of cell cycle arrest in human KYSE-150 cells assessed as accumulation of cells at G0/G1 phase at 111.1 nM incubated for 24 hrs by flow cytometry (reference value: 65.08 %); type: functional
[8] = Induction of apoptosis in human KYSE-150 cells assessed as necrotic cells at 37 nM incubated for 72 hrs by Annexin V-PE/7-AAD staining based flow cytometry (reference value: 4.28 %); type: functional
[9] = Induction of cell cycle arrest in human KYSE-150 cells assessed as accumulation of cells at G2/M phase at 111.1 nM incubated for 24 hrs by flow cytometry (reference value: 21.64 %); type: functional
[10] = Induction of cell cycle arrest in human KYSE-150 cells assessed as accumulation of cells at G2/M phase at 37 nM incubated for 24 hrs by flow cytometry (reference value: 21.64 %); type: functional
[11] = Induction of cell cycle arrest in human KYSE-150 cells assessed as accumulation of cells at G2/M phase at 1000 nM incubated for 24 hrs by flow cytometry (reference value: 21.64 %); type: functional
[12] = Induction of apoptosis in human KYSE-150 cells assessed as late apoptotic cells at 111.1 nM incubated for 72 hrs by Annexin V-PE/7-AAD staining based flow cytometry (reference value: 5.98 %); type: functional
[13] = target: T1, von Hippel-Lindau disease tumor suppressor/Lysine-specific demethylase 4A; test: PROTAC activity at VHL/KDM4A in human KYSE-150 cells assessed as induction of KDM4A degradation at 500 nM measured for 8 to 36 hrs by Western blot analysis; type: cell-based; settings: KYSE-150 cell line, time 8-36 hrs
[14] = Induction of apoptosis in human KYSE-150 cells assessed as early apoptotic cells at 1000 nM incubated for 72 hrs by Annexin V-PE/7-AAD staining based flow cytometry (reference value: 5.27 %); type: functional
[15] = target: T2, von Hippel-Lindau disease tumor suppressor/Lysine-specific demethylase 4B; test: PROTAC activity at VHL/KDM4B in human KYSE-150 cells assessed as induction of KDM4B degradation measured after 24 hrs by Western blot analysis; type: cell-based
[16] = Induction of apoptosis in human KYSE-150 cells assessed as viable cells at 111.1 nM incubated for 72 hrs by Annexin V-PE/7-AAD staining based flow cytometry (reference value: 84.47 %); type: functional; settings: read-out: Activity
[17] = Induction of apoptosis in human KYSE-150 cells assessed as late apoptotic cells at 1000 nM incubated for 72 hrs by Annexin V-PE/7-AAD staining based flow cytometry (reference value: 5.98 %); type: functional
[18] = Induction of cell cycle arrest in human KYSE-150 cells assessed as accumulation of cells at G0/G1 phase at 333.3 nM incubated for 24 hrs by flow cytometry (reference value: 65.08 %); type: functional
[19] = Induction of apoptosis in human KYSE-150 cells assessed as late apoptotic cells at 12.3 nM incubated for 72 hrs by Annexin V-PE/7-AAD staining based flow cytometry (reference value: 5.98 %); type: functional
[20] = target: T1, von Hippel-Lindau disease tumor suppressor/Lysine-specific demethylase 4A; test: PROTAC activity at VHL/KDM4A in human KYSE-150 cells assessed as induction of KDM4A degradation upto 1000 nM by Western blot analysis; type: cell-based; settings: KYSE-150 cell line
[21] = Induction of apoptosis in human KYSE-150 cells assessed as viable cells at 12.3 nM incubated for 72 hrs by Annexin V-PE/7-AAD staining based flow cytometry (reference value: 84.47 %); type: functional; settings: read-out: Activity
[22] = Induction of cell cycle arrest in human KYSE-150 cells assessed as accumulation of cells at G2/M phase at 333.3 nM incubated for 24 hrs by flow cytometry (reference value: 21.64 %); type: functional
[23] = target: von Hippel-Lindau disease tumor suppressor/Lysine-specific demethylase 4D (Homo sapiens, UniProt Q6B0I6+P40337); test: PROTAC activity at VHL/KDM4D in human KYSE-150 cells assessed as induction of KDM4D degradation measured after 24 hrs by Western blot analysis; type: cell-based; settings: kyse-150 cell line
[24] = Induction of cell cycle arrest in human KYSE-150 cells assessed as accumulation of cells at G0/G1 phase at 1000 nM incubated for 24 hrs by flow cytometry (reference value: 65.08 %); type: functional

T1 sequence (O75164 2-1064 limits assumed): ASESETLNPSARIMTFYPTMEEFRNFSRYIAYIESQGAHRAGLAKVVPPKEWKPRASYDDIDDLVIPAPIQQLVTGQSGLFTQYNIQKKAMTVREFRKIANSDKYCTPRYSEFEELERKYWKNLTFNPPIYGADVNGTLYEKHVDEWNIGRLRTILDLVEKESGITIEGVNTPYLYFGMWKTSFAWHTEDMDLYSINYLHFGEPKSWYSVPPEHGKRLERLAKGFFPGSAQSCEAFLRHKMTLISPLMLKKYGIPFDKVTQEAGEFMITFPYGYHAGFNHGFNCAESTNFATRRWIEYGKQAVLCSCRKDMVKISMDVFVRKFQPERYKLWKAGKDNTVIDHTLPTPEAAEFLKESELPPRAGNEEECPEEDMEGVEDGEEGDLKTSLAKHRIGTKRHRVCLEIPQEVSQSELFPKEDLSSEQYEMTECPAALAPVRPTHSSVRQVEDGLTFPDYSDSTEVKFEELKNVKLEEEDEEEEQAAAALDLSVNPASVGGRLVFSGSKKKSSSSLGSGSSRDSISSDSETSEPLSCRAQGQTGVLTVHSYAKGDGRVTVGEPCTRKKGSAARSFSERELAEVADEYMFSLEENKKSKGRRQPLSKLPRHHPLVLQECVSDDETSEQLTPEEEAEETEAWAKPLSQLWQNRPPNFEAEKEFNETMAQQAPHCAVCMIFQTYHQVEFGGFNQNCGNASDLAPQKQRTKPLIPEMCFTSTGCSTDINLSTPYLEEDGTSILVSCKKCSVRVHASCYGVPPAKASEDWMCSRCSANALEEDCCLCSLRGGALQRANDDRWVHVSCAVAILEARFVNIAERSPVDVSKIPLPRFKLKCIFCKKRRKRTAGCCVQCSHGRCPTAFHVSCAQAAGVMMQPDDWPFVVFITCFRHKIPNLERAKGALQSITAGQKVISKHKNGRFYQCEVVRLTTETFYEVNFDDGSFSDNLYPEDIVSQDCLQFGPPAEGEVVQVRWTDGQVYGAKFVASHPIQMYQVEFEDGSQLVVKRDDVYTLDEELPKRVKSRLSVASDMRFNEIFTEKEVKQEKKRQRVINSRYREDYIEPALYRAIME
T1 sequence (P40337 whole entry partner): as the sequence (P40337 whole entry, looked up) above
von Hippel-Lindau disease tumor suppressor/Lysine-specific demethylase 4D, sequence (Q6B0I6 whole entry): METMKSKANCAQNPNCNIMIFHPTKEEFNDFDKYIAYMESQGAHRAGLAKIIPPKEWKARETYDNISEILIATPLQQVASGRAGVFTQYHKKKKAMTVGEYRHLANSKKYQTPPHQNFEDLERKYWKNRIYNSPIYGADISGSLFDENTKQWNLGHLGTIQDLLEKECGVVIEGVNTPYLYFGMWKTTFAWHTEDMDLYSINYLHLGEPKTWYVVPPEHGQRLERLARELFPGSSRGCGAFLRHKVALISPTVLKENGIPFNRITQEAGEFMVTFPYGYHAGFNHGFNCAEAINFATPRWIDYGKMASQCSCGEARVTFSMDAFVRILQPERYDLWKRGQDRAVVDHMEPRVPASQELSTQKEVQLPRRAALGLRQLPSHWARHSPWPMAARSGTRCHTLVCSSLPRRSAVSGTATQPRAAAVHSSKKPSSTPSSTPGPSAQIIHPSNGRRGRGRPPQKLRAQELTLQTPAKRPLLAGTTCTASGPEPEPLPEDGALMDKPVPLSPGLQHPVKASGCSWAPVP
von Hippel-Lindau disease tumor suppressor/Lysine-specific demethylase 4D, sequence (P40337 whole entry): as the sequence (P40337 whole entry, looked up) above

Cc1ncsc1-c1ccc([C@H](C)NC(=O)[C@@H]2C[C@@H](O)CN2C(=O)[C@@H](NC(=O)CCCCCCCCCOc2ccc(N(C)c3ccc4c(c3)OCC[C@H]4CNc3cnccc3C(=O)O)cc2)C(C)(C)C)cc1
Activity [1]: 57.2% | Activity [2]: 18.22% | Activity [3]: 10.63% | Activity [4]: 14.06% | viability at 0.037 µM [5]: 30.6% | Emax [6]: 73.1% | Activity [7]: 73.05% | Activity [8]: 7.7% | Activity [9]: 12.48% | Activity [10]: 13.29% | Activity [11]: 12.05% | Activity [12]: 54.12% | Activity [13]: Active | Activity [14]: 29.18% | Activity ([15]; KYSE-150 cell line): Dose-dependent-effect | DC50 ([15]; kyse-150 cell line): 39.9 nM | viability at 0.1111 µM [16]: 18.2% | Activity [17]: 47.86% | Activity [18]: 72.82% | Activity [19]: 18.97% | Activity [20]: Time-dependent-effect | viability at 0.0123 µM [21]: 64.4% | Activity [22]: 13.01% | DC50 [23]: > 1000 nM | Activity [24]: 74.74%
